Consider 2 molecules from PMC9168183 (Redox Biology, 2022).

The target of this assay is T1, thioredoxin reductase (TrxR) (Rattus norvegicus, UniProt O89049).
T1 sequence (O89049 1-499): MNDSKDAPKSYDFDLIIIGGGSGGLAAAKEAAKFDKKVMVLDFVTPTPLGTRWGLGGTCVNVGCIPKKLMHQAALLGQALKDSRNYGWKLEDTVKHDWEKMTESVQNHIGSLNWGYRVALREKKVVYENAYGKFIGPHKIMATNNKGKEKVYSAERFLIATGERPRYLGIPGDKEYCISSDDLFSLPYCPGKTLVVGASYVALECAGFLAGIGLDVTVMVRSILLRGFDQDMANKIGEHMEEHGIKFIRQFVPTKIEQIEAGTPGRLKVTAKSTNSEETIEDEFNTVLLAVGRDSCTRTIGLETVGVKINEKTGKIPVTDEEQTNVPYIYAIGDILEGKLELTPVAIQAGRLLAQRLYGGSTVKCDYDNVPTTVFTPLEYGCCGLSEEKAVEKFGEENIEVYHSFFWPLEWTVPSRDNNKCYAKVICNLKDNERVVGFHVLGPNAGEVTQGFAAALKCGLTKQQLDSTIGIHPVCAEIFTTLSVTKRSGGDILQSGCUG
Nature of the assay: DTNB assay with isolated TrxR, % inhibition at […]. Type of assay: biochemical. The note with it: read-out: Isolated TrxR (Inhibition %).

Consider `O=C(/C=C/c1ccc(O)cc1)c1ccc(O)cc1O` [compound 4, Isoliquiritigenin], for which the inhibition at 50 µM amounted to 76.9%.

In the case of `C=C1C(=O)O[C@@H]2C[C@@]3(C)CCCC(=C)[C@@H]3C[C@H]12` [compound 5, Isoalantolactone], the inhibition at 50 µM is 79.7%.
